# How the values were obtained:
# [1] = system: human peripheral blood lymphocytes (PBLs); experiment: Suppression of PBL proliferation in vitro (anti-CD3 X-35 stimulated, [3H] thymidine incorporation); format: cell-based; details: X-35 5 ng/ml; 72 hours; subglutinol between 1 and 20 μg/ml
# Procedure: One measure of immunosuppression is suppression of stimulated proliferation of peripheral blood lymphocytes (PBLs) in vitro. In the assay detailed in Example 5, PBLs were activated in vitro by addition of anti-CD3 monoclonal antibody (X-35 antibody). Subglutinol or vehicle (control) was added to each culture, at selected concentrations. After 72 hours incubation, tritiated thymidine was added to the culture medium, and incorporation of tritium into DNA was assayed as a measure of DNA synthesis associated with cell proliferation.
# This example examines the ability of subglutinol to suppress the proliferation of human peripheral blood lymphocytes (PBLs) when stimulated with X-35 (AMAC #0178), an anti-CD3 surface antigen antibody. Human PBLs were prepared using an established method (Boyum). Human blood buffy coat samples, approximately 25 ml/donor, were obtained from the Stanford University Medical Center Blood Bank. […] The cell pellets were suspended in 10 ml of X-Vivo tissue culture medium (BioWhittakar, Walkersville, Md) and counted using a hemocytometer. […]
# Plates were incubated at 37° C. in a 7% CO2 incubator for 72 hours. […] Samples were counted in a liquid scintillation counter (1205 Betaplate, Pharmacia LKB Biotechnology). […]
# [2] = system: IL-1 action on mouse thymocytes; experiment: Inhibition of IL-1 action on mouse thymocytes (proliferation, [3H] thymidine incorporation); format: cell-based; details: at about 0.2 μg/ml; rIL-1β 0.08 ng/ml plus PHA 10 μg/ml; 72 hours; range 0.012 to 0.76 μg/ml
# Procedure: The ability of subglutinol to suppress the cell-proliferative effect of IL-1 in mouse thymocytes as an index of IL-1 action (O'Gara, 1990) was also examined. In this study, mouse thymocytes in culture were stimulated with IL-1 in the presence of phytohemagglutinin and increasing concentrations of subglutinol. The cells were cultured for 72 hours, and during the last four hours, incubated with tritiated thymidine. […] Details are given in Example 6.
# Mouse thymocytes were prepared, and the action of IL-1, which stimulates thymocyte proliferation, was measured using standard techniques (O'Gara, 1990). Three to six week old C3H/HeN male mice (Simonson Laboratory, Gilroy, Calif.) were sacrificed by CO2 inhalation. Thymi were removed, separated from adherent non-thymic tissue, homogenized in Hank's balanced salt solution (HBSS, Gibco) using a glass homogenizer, and centrifuged at 200×g for 10 minutes at 15° C. Following an additional wash in HBSS, the thymocytes were resuspended in RPMI 1640 medium (Gibco) containing 50 μM 2-mercaptoethanol, 2 mM glutamine, 1 mM sodium pyruvate, non-essential amino acids 100 U/ml penicillin, 100 μg/ml streptomycin and 10% heat-inactivated fetal bovine serum. […]
# Subglutinol was added, 25 μl per well, to obtain final concentrations of subglutinol between 0.001 and 0.78 μg/ml. […] Cells were harvested and counted as above. […]
# [3] = system: proliferation of lymphocytes in a mixed lymphocyte reaction; experiment: Murine mixed lymphocyte reaction (MLR); format: cell-based, mouse; details: at 0.1 μg/ml; C57Bl/6 responder, irradiated Balb/C stimulator spleen cells; 4 days
# Procedure: A measure of immunosuppression that serves as a model for transplantation rejection is inhibition of cell proliferation in a mixed lymphocyte reaction (MLR) assay (Bradley, in Mishell, 1980). In these experiments, an MLR is induced by co-incubating responder (R) cells from one mouse strain (C57B1/6) with stimulator (S) cells from another mouse strain (Balb/C).
# The responder cells proliferate in the presence of the allogenic stimulator cells. The stimulator cells are irradiated so they are unable to proliferate. After 72 hours incubation, tritiated thymidine is added to the mixed cell cultures, and incorporation of the labeled nucleotide into DNA is assayed as an index of cell proliferation.
# In the MLR test reported in Example 7, responder cells were co-cultured in microtitre wells with stimulator cells, in the presence of selected concentrations of subglutinol between 0.01 and 0.3 μg/ml. The wells receiving no subglutinol would be expected to be maximally stimulated. The cells were cultured for 4 days, and labeled with [^3 H] thymidine during the last 18 hours of incubation. […]
# Several controls were conducted in the MLR assay. […] The spontaneous proliferation of R was also measured. […] Cells were harvested and counted as above. […]
# [4] = Evaluation of potential toxicity (MTT assay); format: cell-based; details: human, pbls, 21 hours plus 3 hours MTT
# Procedure: Potential toxicity of the mixture was assessed by measurement the effect of subglutinol on the ability of cultured cells to reduce MTT (3-[4,5-Dimethylthiazol-2-yl]-2,5-diphenyltetrazolium bromide), an index of cellular respiration that is more sensitive in the detection of cytotoxicity than methods involving measurement of DNA replication (Green, 1984).
# Potential cytotoxicities of test samples were assessed by measuring the effect of subglutinol on the reduction of MTT (3-[4,5-Dimethylthiazole-2-yl]-2,5-diphenyl-tetrazolium bromide) by cultured cells. MTT, a yellow-colored compound, is reduced by mitochondrial enzymes to form a purple crystalline reduction product, formazane, providing an index of cellular respiration as well as a sensitive assay for cytotoxicity (Green, 1984).
# Cytotoxicity was assessed in cultured human PBLs. A stock solution of MTT (Sigma, St. Louis, Mo.), 5 mg/ml phosphate buffered saline, pH 7.4, was prepared and stored in the dark at 4° C. PBLs were cultured with various concentrations of test samples in flat-bottom 96 well tissue culture plate (Costar #3595) using the same conditions as in Example 5 above, except that X-35 was replaced with the appropriate medium.
# Untreated cells in medium alone were used as controls in each experiment. Following 21 hours of incubation of cells, 25 μl of MTT solution was added to each well. After an additional three hour incubation, the experiment was terminated by adding a solution of 10% sodium dodecyl sulfate in 0.01 N HCl.
# Following overnight incubation at 37° C. (to solubilize the formazane crystals), optical density was determined at 570-650 nm in a microplate reader (Thermo max, Molecular Devices, Calif.). Data are expressed as % cytotoxicity. Subglutinol concentrations of 0.03, 0.1, and 0.3 μg/ml gave % cytotoxicity values of 0, 20, and 28%, respectively.
structure (smiles),measurement,setting,value
C=C1CCC2C3(C)CC(C=C(C)C)OC3CCC2(C)C1Cc1c(O)c(C)c(C)oc1=O (stereo not drawn) [subglutinol],percent suppression of proliferation of anti-CD3 stimulated PBLs (FIG. 10),[1],dose-dependent suppression
same,inhibition of IL-1 action on thymocytes (FIG. 11),[2],Nearly complete inhibition
same,percent inhibition of stimulation in MLR (FIG. 12),[3],Nearly complete inhibition
same,cytotoxicity at 24 h,[4]; 0.03 μg/ml,0%
same,cytotoxicity at 24 h,[4]; 0.1 μg/ml,20%
same,cytotoxicity at 24 h,[4]; 0.3 μg/ml,28%

# Source: patent US5648376A, “Immunosuppressant diterpene compound” (Pharmagenesis, Inc., priority 1995, dated 1997)
